Experimental data from patent US12240862B2, “Inhibitors of peptidylarginine deiminases” (Gilead Sciences, Inc., priority 2020, dated 2025).

Target: T1, human PAD4 (Homo sapiens, UniProt Q9UM07)
T1 construct: human PAD4 (NM_012387), A2P663, was PCR amplified; His-SUMO (N, cleaved yes); made in house; host or cells: E. coli BL21(DE3)
Assay: In vitro PAD4 BAEE biochemical assay
Details: human PAD4, BAEE substrate; 5 nM PAD4, 2 mM calcium chloride, 3 mM BAEE; geometric mean of multiple experiments
Procedure, shortened: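 Ammonia generated from BAEE serves as the readout, measured by o-phthalaldehyde after EDTA termination. Final conditions: 5 nM human PAD4 (SUMO tag cleaved), 2 mM CaCl2, 3 mM BAEE, pH 7.6 MOPS buffer, 25 °C for 2 h following a 30-min compound preincubation.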

T1 sequence (Q9UM07 2-663): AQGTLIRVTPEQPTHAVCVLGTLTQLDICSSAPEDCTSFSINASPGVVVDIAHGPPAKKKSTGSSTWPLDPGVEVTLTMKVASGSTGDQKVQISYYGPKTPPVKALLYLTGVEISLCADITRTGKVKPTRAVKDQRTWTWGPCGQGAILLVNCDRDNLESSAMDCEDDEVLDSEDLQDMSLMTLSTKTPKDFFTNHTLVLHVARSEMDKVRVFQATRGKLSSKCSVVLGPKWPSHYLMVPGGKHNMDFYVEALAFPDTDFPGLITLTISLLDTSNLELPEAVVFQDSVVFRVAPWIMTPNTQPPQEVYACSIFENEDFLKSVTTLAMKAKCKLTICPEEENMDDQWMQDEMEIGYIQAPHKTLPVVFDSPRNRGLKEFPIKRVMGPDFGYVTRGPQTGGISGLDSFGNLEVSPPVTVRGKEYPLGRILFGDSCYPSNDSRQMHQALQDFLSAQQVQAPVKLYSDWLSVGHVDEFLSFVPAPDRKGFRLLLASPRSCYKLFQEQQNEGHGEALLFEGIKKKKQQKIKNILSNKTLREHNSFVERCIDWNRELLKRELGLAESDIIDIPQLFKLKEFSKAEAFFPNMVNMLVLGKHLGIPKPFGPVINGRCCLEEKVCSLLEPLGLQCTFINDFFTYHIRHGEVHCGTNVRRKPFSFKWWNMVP

Structure (SMILES)	IC50 [nM]
COc1cc(C(=O)N2[C@H]3CC[C@@H]2[C@H](N)C3)cc2nc(-c3cc4ccc(N5[C@@H](C)COCS5(=O)=O)nc4n3CC3CC3)c(C)n12 [Example 439, [(1~{R},2~{R},4~{S})-2-amino-7-azabicyclo [2.2.1]heptan-7-yl]-[2-[1-(cyclopropylmethyl)-6-[(5~{S})-5-methyl-3,3-dioxo-1,3,4-oxathiazinan-4-yl]pyrrolo [2,3-b]pyridin-2-yl]-5-methoxy-3-methylimidazo [1,2-a]pyridin-7-yl] methanone]	24.3
COc1cc(C(=O)N2[C@H]3CC[C@@H]2[C@H](N)C3)cc2nc(-c3cc4ccc(C(C)(C)CC(=O)N5CC(F)(F)C5)nc4n3CC3CC3)c(C)n12 [Example 538, 3-[2-[7-[(1~{R},2~{R}, 4~{S})-2-amino-7-azabicyclo[2.2.1]heptane-7-carbonyl]-5-methoxy-3-methylimidazo[1,2-a]pyridin-2-yl]-1-(cyclopropylmethyl)pyrrolo [2,3-b]pyridin-6-yl]-1-(3,3-difluoroazetidin-1-yl)-3-methylbutan-1-one]	175
COc1cc(C(=O)N2[C@H]3CC[C@@H]2[C@H](N)C3)cc2nc(-c3cc4ccc([C@@H]5CCNC(=O)C5)nc4n3CC3CC3)c(C)n12 [Example 555, (4~{R})-4-[2-[7-[(1~{R},2~{R},4~{S})-2-amino-7-azabicyclo[2.2.1]heptane-7-carbonyl]-5-methoxy-3-methylimidazo [1,2-a]pyridin-2-yl]-1-(cyclopropylmethyl)pyrrolo [2,3-b]pyridin-6-yl]piperidin-2-one]	69.3
COc1cc(C(=O)N2[C@H]3CC[C@@H]2[C@H](N)C3)cc2nc(-c3cc4ccc([C@@H](C)NC(=O)N5CC(O)C5)nc4n3CC3CC3)c(C)n12 [Example 227, ~{N}-[(1~{R})-1-[2-[7-[(1~{R},2~{R},4~{S})-2-amino-7-azabicyclo[2.2.1]heptane-7-carbonyl]-5-methoxy-3-methylimidazo [1,2-a]pyridin-2-yl]-1-(cyclopropylmethyl)pyrrolo [2,3-b]pyridin-6-yl]ethyl]-3-hydroxyazetidine-1-carboxamide]	65.2
COc1cc(C(=O)N2[C@H]3CC[C@@H]2[C@H](N)C3)cc2nc(-c3cc4ccc([C@@H](C)NC(=O)C5CCC5)nc4n3CC3CC3)c(C)n12 [Example 101]	22.5

Other lines, results leading:

IC50 [nM]	Structure (SMILES)
31500	CCc1ccc2cc(-c3nc4cc(C(=O)N5CC6(CNCCO6)C5)cc(OC)n4c3C)n(CC3CC3)c2n1 [Example 595, [2-[1-(cyclopropylmethyl)-6-ethylpyrrolo[2,3-b]pyridin-2-yl]-5-methoxy-3-methylimidazo[1,2-a]pyridin-7-yl]-(5-oxa-2,8-diazaspiro[3.5]nonan-2-yl) methanone]
484	COc1cc(C(=O)N2C[C@H]3CCCN[C@H]3C2)cc2nc(-c3cc4ccc(N(C(F)F)S(C)(=O)=O)nc4n3CC3CC3)c(C)n12 [Example 336, ~{N}-[2-[7-[(4~{a}~{R},7~{a}~{R})-1,2,3,4,4~{a},5,7,7~{a}-octahydropyrrolo[3,4-b]pyridine-6-carbonyl]-5-methoxy-3-methylimidazo[1,2-a]pyridin-2-yl]-1-(cyclopropylmethyl)pyrrolo [2,3-b]pyridin-6-yl]-~{N}-(difluoromethyl) methanesulfonamide]
77.7	COc1cc(C(=O)N2[C@H]3CC[C@@H]2[C@H](N)C3)cc2nc(-c3cc4ccc(C(C)CC#N)nc4n3CC3CC3)c(C)n12 (some centres unmarked) [Example 557, 3-[2-[7-[(1~{R},2~{R}, 4~{S})-2-amino-7-azabicyclo[2.2.1]heptane-7-carbonyl]-5-methoxy-3-methylimidazo[1,2-a]pyridin-2-yl]-1-(cyclopropylmethyl)pyrrolo [2,3-b]pyridin-6-yl] butanenitrile]
